Laboratory results published in patent US7524823B2, “Macrolides” (Basilea Pharmaceutica AG, priority 2005, dated 2009).
Values after ≈ are worked out from the molar mass of the structure shown. Read-outs that look alike come from different tables or passages of the source.

Key:
Type in all cases: cell-based
[1] = system: Propionibacterium acnes EG7NS; assay: MIC by anaerobic broth microdilution (WCB, NCCLS); conditions: code I: Propionibacterium acnes EG7NS, anaerobic, 35-37° C., 48 h
Protocol: (§1) MIC values towards strains of propionibacteria were obtained by broth microdilution using WCB (Anaerobe Broth MIC, Difco) according to NCCLS guidelines (National Committee for Clinical Laboratory Standards. Methods for anti-microbial susceptibility testing of anaerobic bacteria, 5th ed.; approved standard. NCCLS publication no. M11-A5. NCCLS, Wayne, Pa., 2001). Microtitre plates were loaded into 7-L GENbox anaerobic incubation jars (BioMérieux, cat. no. 96 128) fitted with anaerobic atmosphere generators (BioMérieux, cat. no. 96 124) and a Dry Anaerobic Indicator Strip (BBL, cat. no. 271051). Under these conditions, an O2 concentration <0.1% was achieved by 2.5 h, and a CO2 concentration >15% by 24 h. MIC values were read after incubation at 35-37° C. for 48 h (Table 3).

[2] = system: Propionibacterium acnes SW101T; assay: MIC by anaerobic broth microdilution (WCB, NCCLS); conditions: code K: Propionibacterium acnes SW101T, 35-37° C., 48 h
Protocol: as §1

[3] = system: Streptococcus pneumoniae 1/1; assay: MIC by broth microdilution (CAMHB + 5% horse serum, NCCLS); conditions: code D: Streptococcus pneumoniae 1/1
Protocol: (§2) MIC values for non-anaerobes were obtained by broth microdilution using CAMHB (BBL) according to NCCLS guidelines (National Committee for Clinical Laboratory Standards. Methods for dilution antimicrobial susceptibility tests for bacteria that grow aerobically, 5th ed. Approved standard M7-A6. NCCLS, Wayne, Pa., 2003). Drugs were dissolved in DMSO prior to dispensing into 96-well microtitre plates; the concentration of DMSO in assay wells never exceeded 2% (v/v). CAMHB was supplemented with 5% (v/v) horse serum (Sigma, cat. no. H-1270) in lieu of laked horse blood for cultivation of Streptococcus pneumoniae, and with 5% (v/v) Fildes enrichment (BBL, cat. no. 220810) supernate in lieu of Haemophilus Test Medium and additives for cultivation of Haemophilus influenzae (Pankuch G A, Hoellman D B, Lin G, Bajaksouzian S, Jacobs M R, Appelbaum P C. Activity of HMR 3647 compared to those of five agents against Haemophilus influenzae and Moraxella catarrhalis by MIC determination and time-kill assay. Antimicrob. Agents Chemother. November 1998; 42(11): 3032-4). Activities expressed as the minimal inhibitory concentrations (MICs) (μg/ml) are given in the following Table 3, and the microorganisms used for testing are listed in Table 2 below.

[4] = system: Streptococcus pneumoniae SL199T; assay: as above; conditions: code E: Streptococcus pneumoniae SL199T
Protocol: as §2

[5] = system: Streptococcus pneumoniae Tupelo; assay: as above; conditions: code F: Streptococcus pneumoniae Tupelo
Protocol: as §2

[6] = system: Staphylococcus aureus 1086; assay: MIC by broth microdilution (CAMHB, NCCLS); conditions: code B: Staphylococcus aureus 1086
Protocol: as §2

[7] = system: Escherichia coli ATCC 25922; assay: MIC by broth microdilution (CAMHB, NCCLS); conditions: code C: Escherichia coli ATCC 25922
Protocol: as §2

[8] = system: Staphylococcus aureus ATCC 29213; assay: MIC by broth microdilution (CAMHB, NCCLS); conditions: code A: Staphylococcus aureus ATCC 29213
Protocol: as §2

[9] = system: Haemophilus influenzae QK50; assay: MIC by broth microdilution (CAMHB + 5% Fildes enrichment, NCCLS); conditions: code H: Haemophilus influenzae QK50
Protocol: as §2

[10] = system: Haemophilus influenzae 12214; assay: as above; conditions: code G: Haemophilus influenzae 12214
Protocol: as §2

[11] = Cutibacterium acnes, read-out: MIC

SMILES | MIC [1] | MIC [2] [µg/mL] | MIC [3] | MIC [4] [µg/mL] | MIC [5] [µg/mL] | MIC [6] | MIC [7] | MIC [8] [µg/mL] | MIC [9] [µg/mL] | MIC [10] [µg/mL] | MIC [1, 11] [µg/mL] | MIC [2, 11] [µg/mL] | MIC ([3]; read-out: MIC) [µg/mL] | MIC ([4]; read-out: MIC) [µg/mL] | MIC ([5]; read-out: MIC) [µg/mL] | MIC ([6]; read-out: MIC) [µg/mL] | MIC ([7]; ATCC25922, read-out: MIC) [µg/mL] | MIC ([8]; ATCC29213, read-out: MIC) [µg/mL] | MIC ([9]; read-out: MIC) [µg/mL] | MIC ([10]; read-out: MIC) [µg/mL]
CC[C@H]1OC(=O)[C@H](C)[C@@H](O[C@H]2C[C@@](C)(OC)[C@@H](O)[C@H](C)O2)[C@H](C)[C@@H](O[C@@H]2O[C@H](C)C[C@H](N(C)C)[C@H]2O)[C@](C)(OC)C[C@@H](C)C(=O)[C@H](C)[C@H]2[C@H](SCC(=O)Nc3ccc(C(=O)OC)c(OC)c3)C(=O)O[C@@]21C [Example 24] | <=0.06 μg/ml | >32 | <=0.06 μg/ml | 4 | 8 | >=32 μg/ml | >32 µg/mL | 1 (≈ 0.975 µM) | 8 | 8 |  |  |  |  |  |  |  |  |  | 
CC[C@H]1OC(=O)[C@H](C)[C@@H](O[C@H]2C[C@@](C)(OC)[C@@H](O)[C@H](C)O2)[C@H](C)[C@@H](O[C@@H]2O[C@H](C)C[C@H](N(C)C)[C@H]2O)[C@](C)(OC)C[C@@H](C)C(=O)[C@H](C)[C@H]2[C@H](SCC(=O)Nc3ccc(C)c(C)c3)C(=O)O[C@@]21C [Example 22] | <=0.06 μg/ml | 32 (≈ 33.2 µM) | <=0.06 μg/ml | 8 | 8 | 32 µg/mL (≈ 33.2 µM) | >32 µg/mL | 2 (≈ 2.07 µM) | 8 | 8 |  |  |  |  |  |  |  |  |  | 
CC[C@H]1OC(=O)[C@H](C)[C@@H](O[C@H]2C[C@@](C)(OC)[C@@H](O)[C@H](C)O2)[C@H](C)[C@@H](O[C@@H]2O[C@H](C)C[C@H](N(C)C)[C@H]2O)[C@](C)(OC)C[C@@H](C)C(=O)[C@H](C)[C@H]2[C@H](S(=O)(=O)CCn3cnc4c(N)ncnc43)C(=O)O[C@@]21C [Example 7] | 2 µg/mL (≈ 2.01 µM) | 8 (≈ 8.02 µM) | 2 µg/mL | 4 | 16 | >32 µg/mL | >32 µg/mL | 32 (≈ 32.1 µM) | >32 | >32 |  |  |  |  |  |  |  |  |  | 
CC[C@H]1OC(=O)[C@H](C)[C@@H](O[C@H]2C[C@@](C)(OC)[C@@H](O)[C@H](C)O2)[C@H](C)[C@@H](O[C@@H]2O[C@H](C)C[C@H](N(C)C)[C@H]2O)[C@](C)(OC)C[C@@H](C)C(=O)[C@H](C)[C@H]2[C@H](SCCCN3C(=O)c4cccnc4C3=O)C(=O)O[C@@]21C [Example 5] | <=0.06 μg/ml | 16 (≈ 16.1 µM) | <=0.06 μg/ml | 8 | 16 | >32 µg/mL | >32 µg/mL | 2 (≈ 2.02 µM) | 8 | 8 |  |  |  |  |  |  |  |  |  | 
CC[C@H]1OC(=O)[C@H](C)[C@@H](O[C@H]2C[C@@](C)(OC)[C@@H](O)[C@H](C)O2)[C@H](C)[C@@H](O[C@@H]2O[C@H](C)C[C@H](N(C)C)[C@H]2O)[C@](C)(OC)C[C@@H](C)C(=O)[C@H](C)[C@H]2[C@H](SCCn3ccc(-c4cccnc4)n3)C(=O)O[C@@]21C [Example 17] | <=0.06 μg/ml | 16 (≈ 16.4 µM) | <=0.06 μg/ml | 0.5 | 1 | >32 µg/mL | >32 µg/mL | 1 (≈ 1.03 µM) | 4 | 4 |  |  |  |  |  |  |  |  |  | 
CC[C@H]1OC(=O)[C@H](C)[C@@H](O[C@H]2C[C@@](C)(OC)[C@@H](O)[C@H](C)O2)[C@H](C)[C@@H](O[C@@H]2O[C@H](C)C[C@H](N(C)C)[C@H]2O)[C@](C)(OC)C[C@@H](C)C(=O)[C@H](C)[C@H]2[C@H](SCCCN3C(=O)c4ccccc4C3=O)C(=O)O[C@@]21C [Example 15] | <=0.06 μg/ml | 16 (≈ 16.1 µM) | <=0.06 μg/ml | 1 | 2 | >=32 μg/ml | >32 µg/mL | 1 (≈ 1.01 µM) | 4 | 4 |  |  |  |  |  |  |  |  |  | 
CC[C@H]1OC(=O)[C@H](C)[C@@H](O[C@H]2C[C@@](C)(OC)[C@@H](O)[C@H](C)O2)[C@H](C)[C@@H](O[C@@H]2O[C@H](C)C[C@H](N(C)C)[C@H]2O)[C@](C)(OC)C[C@@H](C)C(=O)[C@H](C)[C@H]2[C@H](SCC(=O)c3ccc(N(CC)CC)cc3)C(=O)O[C@@]21C [Example 26] | 0.125 µg/mL (≈ 0.126 µM) | >32 | 0.125 µg/mL | >32 | >32 | >32 µg/mL | >32 µg/mL | 2 (≈ 2.01 µM) | 16 | >32 |  |  |  |  |  |  |  |  |  | 
CC[C@H]1OC(=O)[C@H](C)[C@@H](O[C@H]2C[C@@](C)(OC)[C@@H](O)[C@H](C)O2)[C@H](C)[C@@H](O[C@@H]2O[C@H](C)C[C@H](N(C)C)[C@H]2O)[C@](C)(OC)C[C@@H](C)C(=O)[C@H](C)[C@H]2[C@H](SCCCn3cnc4c(N)ncnc43)C(=O)O[C@@]21C [Example 16] | 0.125 µg/mL (≈ 0.128 µM) | 1 (≈ 1.02 µM) | <=0.06 μg/ml | 0.125 | 0.5 | >32 µg/mL | >=32 μg/ml | 1 (≈ 1.02 µM) | 2 | 2 |  |  |  |  |  |  |  |  |  | 
CC[C@H]1OC(=O)[C@H](C)C(=O)[C@H](C)[C@@H](O[C@@H]2O[C@H](C)C[C@H](N(C)C)[C@H]2O)[C@](C)(OC)C[C@@H](C)C(=O)[C@H](C)[C@H]2N(CCCCn3cnc(-c4cccnc4)c3)C(=O)O[C@]12C [Telithromycin, reference compound] |  |  |  |  |  |  |  |  |  |  | ≤ 0.06 | 16 (≈ 19.7 µM) | ≤ 0.06 | ≤ 0.06 | 0.5 | 0.25 (≈ 0.308 µM) | > 32 | 0.25 (≈ 0.308 µM) | 1 | 2
CC[C@H]1OC(=O)[C@H](C)[C@@H](O[C@H]2C[C@@](C)(OC)[C@@H](O)[C@H](C)O2)[C@H](C)[C@@H](O[C@@H]2O[C@H](C)C[C@H](N(C)C)[C@H]2O)[C@](C)(OC)C[C@@H](C)C(=O)[C@H](C)[C@H]2[C@H](SCC(=O)NCc3ccccn3)C(=O)O[C@@]21C [Example 6] | <=0.06 μg/ml | >32 | <=0.06 μg/ml | 1 | 2 | >32 µg/mL | >=32 μg/ml | 0.5 (≈ 0.525 µM) | 2 | 2 |  |  |  |  |  |  |  |  |  | 
CC[C@H]1OC(=O)[C@H](C)[C@@H](O[C@H]2C[C@@](C)(OC)[C@@H](O)[C@H](C)O2)[C@H](C)[C@@H](O[C@@H]2O[C@H](C)C[C@H](N(C)C)[C@H]2O)[C@](C)(OC)C[C@@H](C)C(=O)[C@H](C)[C@H]2[C@H](SCCCc3ccc4ncccc4c3)C(=O)O[C@@]21C [Example 3] | 0.25 µg/mL (≈ 0.257 µM) | 16 (≈ 16.4 µM) | 0.25 µg/mL | 2 | 8 | 8 µg/mL (≈ 8.22 µM) | >32 µg/mL | 4 (≈ 4.11 µM) | 16 | >32 |  |  |  |  |  |  |  |  |  | 
